Measured values taken from patent US5935959A, “Piperazine derivatives and use as cysteine inhibitors” (Senju Pharmaceutical Co., Ltd., priority 1995, dated 1999).
pIC50: −log10 of the molar value. Like-named read-outs stand apart in the source and are kept apart here.

Columns and labels:
Assay type in all cases: biochemical
trypsin = experiment: Assay of Trypsin-Inhibitory Activity (casein degradation); conditions: read-out: Trypsin 50% Inhibitory concentration (IC50); casein substrate, pH 8.0, 60 min, 30° C.
Procedure: (§1) The activity of papain which is a cysteine protease and of trypsin (Sigma) which is a serine protease was assayed in accordance with the method described in the literature [Anal. Biochem., 208, 387-392, 1993]. Thus, to a solution containing 0.5 mg/ml casein, 50 mM Tris-HCl (pH 8.0), 20 mM dithiothreitol, and 0.2 mM EDTA was added 2.5 μl of dimethyl sulfoxide containing a varying concentration of the test drug as well as 0.03 unit of papain or trypsin to initiate the reaction. The final liquid volume was adjusted to 250 μl. After 60 minutes of reaction at 30° C., 100 μl of the reaction mixture was transferred to another vessel and following addition of 50 μl of purified water and 100 μl of 50% Coumassie brilliant blue solution, the mixture was allowed to stand at room temperature for 15 minutes. The absorbance of the mixture was then measured at 595 nm. Using the value found similarly by adding 2.5 μl of dimethyl sulfoxide not containing the test drug as control and the value found without addition of the enzyme as blank, IC50 was determined in the same manner as above. E64 and leupeptin were used as reference drugs.

cathepsin L = molecular target: T1, cathepsin L (Homo sapiens, UniProt P07711); experiment: Assay of Cathepsin L-Inhibitory Activity (Z-Phe-Arg-MCA); conditions: Z-Phe-Arg-MCA 20 μM, pH 5.5, 20 min, 30° C.
T1 construct: purchased Cosmo Bio
T1 sequence (P07711 114-333, species assumed): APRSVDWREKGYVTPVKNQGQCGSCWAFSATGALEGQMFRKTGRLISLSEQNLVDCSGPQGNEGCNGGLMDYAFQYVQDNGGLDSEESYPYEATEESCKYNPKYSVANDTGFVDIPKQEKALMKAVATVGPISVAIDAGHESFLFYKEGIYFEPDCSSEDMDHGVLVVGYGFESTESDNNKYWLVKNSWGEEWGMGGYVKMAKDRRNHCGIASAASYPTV
Procedure: The activity of cathepsinL (Cosmo Bio), a cysteine protease, was assayed by the method described in the literature [Methods in Enzymology, 80, 535-561, 1981]. Thus, to a solution containing 85 mM acetate buffer (pH 5.5), 2 mM dithiothreitol, 1 mM EDTA, 2 μg cathepsin L, and a varying concentration of the test compound was added 20 μM carbobenzoxy-L-phenylalanyl-L-arginine-4-methyl-coumaryl-7-amide (Z-Phe-Arg-MCA) to initiate the reaction at the final liquid volume of 200 μl. After 20 minutes of reaction at 30° C., 20 μl of 1M Tris-HCl (pH 8.0) was added so as to stop the reaction. The amount of liberated 4-methyl-7-aminocoumarin was determined with a fluorospectrometer at an excitation wavelength of 360 nm and a fluorescent emission wavelength of 450 nm. Using the value found without addition of the test drug as control and the value found without addition of the enzyme as blank, IC50 was determined in the same manner as above. E64 was used as a reference drug.

μ-calpain = molecular target: T2, μ-calpain (Homo sapiens, UniProt P07384); experiment: Assay of μ-Calpain-Inhibitory Activity (casein degradation); conditions: casein substrate, pH 7.4, 60 min, 30° C.
T2 construct: purchased Nakarai Tesque
T2 sequence (P07384 1-714): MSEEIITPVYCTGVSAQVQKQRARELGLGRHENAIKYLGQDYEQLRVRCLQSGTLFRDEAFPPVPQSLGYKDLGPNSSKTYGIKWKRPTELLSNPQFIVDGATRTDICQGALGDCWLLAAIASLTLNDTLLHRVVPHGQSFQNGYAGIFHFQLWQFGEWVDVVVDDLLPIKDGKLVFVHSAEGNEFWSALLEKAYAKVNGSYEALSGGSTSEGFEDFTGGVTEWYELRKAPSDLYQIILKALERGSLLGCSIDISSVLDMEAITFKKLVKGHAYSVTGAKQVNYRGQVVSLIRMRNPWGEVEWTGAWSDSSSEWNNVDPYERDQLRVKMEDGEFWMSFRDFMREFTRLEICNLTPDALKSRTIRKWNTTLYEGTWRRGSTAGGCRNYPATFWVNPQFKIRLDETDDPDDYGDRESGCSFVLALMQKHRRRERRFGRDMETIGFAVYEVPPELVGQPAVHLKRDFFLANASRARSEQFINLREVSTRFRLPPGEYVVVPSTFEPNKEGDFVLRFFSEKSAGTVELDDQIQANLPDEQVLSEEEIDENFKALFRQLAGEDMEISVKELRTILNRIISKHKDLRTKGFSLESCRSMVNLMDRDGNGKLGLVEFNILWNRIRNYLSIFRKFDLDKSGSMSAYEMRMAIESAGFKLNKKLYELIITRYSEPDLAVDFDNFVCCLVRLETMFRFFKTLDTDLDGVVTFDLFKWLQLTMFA
T2 sequence (P04632 1-268 partner): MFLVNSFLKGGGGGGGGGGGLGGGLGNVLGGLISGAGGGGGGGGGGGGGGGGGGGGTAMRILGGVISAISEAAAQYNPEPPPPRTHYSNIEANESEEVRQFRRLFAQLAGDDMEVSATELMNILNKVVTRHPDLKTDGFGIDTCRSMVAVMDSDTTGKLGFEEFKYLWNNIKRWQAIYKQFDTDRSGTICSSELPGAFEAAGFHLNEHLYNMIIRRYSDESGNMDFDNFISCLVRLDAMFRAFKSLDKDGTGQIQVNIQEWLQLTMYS
Procedure: The activity of μ-calpain (Nakarai Tesque) was assayed in accordance with the procedure described in the literature [Anal. Biochem., 208, 387-392 (1993)]. Thus, to a solution containing 0.5 mg/ml casein, 50 mM Tris-HCl (pH 7.4), 20 mM dithiothreitol, and 4 mM calcium chloride was added 2.5 μl of a dimethyl sulfoxide solution containing a varying concentration of the test drug as well as 0.03 unit of μ-calpain to initiate the reaction. The final liquid volume was 250 μl. After 60 minutes of reaction at 30° C., 100 μl of the reaction mixture was transferred to another vessel, to which 50 μl of purified water and 100 μl of 50% Coumassie brilliant blue solution were added. The mixture was allowed to stand at room temperature for 15 minutes and the absorbance was measured at 595 nm. As a control, 2.5 μl of dimethyl sulfoxide not containing the test drug was added and the mixture was treated in the same manner as above. The absorbance value thus found was used as the control value. Similarly, the value found by adding 0.2 mM EDTA in lieu of 4 mM aqueous calcium chloride solution was used as the blank value. […] E64 which is a known cysteine protease inhibition compound was used as a reference drug. [formula]

papain = molecular target: T3, papain (Carica papaya, UniProt P00784); experiment: Assay of Papain-Inhibitory Activity (casein degradation); conditions: casein substrate, pH 8.0, 60 min, 30° C.
T3 construct: purchased Sigma
T3 sequence (P00784 134-345): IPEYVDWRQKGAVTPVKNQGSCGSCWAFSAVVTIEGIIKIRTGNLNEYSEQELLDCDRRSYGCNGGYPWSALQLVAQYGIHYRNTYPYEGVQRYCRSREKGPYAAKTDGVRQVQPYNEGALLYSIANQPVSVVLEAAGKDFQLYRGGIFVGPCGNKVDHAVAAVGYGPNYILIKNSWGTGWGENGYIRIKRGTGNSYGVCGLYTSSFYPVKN
Procedure: as §1

Row | SMILES | pIC50 (trypsin) | pIC50 (μ-calpain) | other results
1 | CC(C)C[C@H](NC(=O)[C@H]1O[C@@H]1C(=O)O)C(=O)N1CCN(c2ccc(F)cc2)CC1 [Example 23, (2s,3s)-3-[[[[(1s)-1-[[4-(4-fluorophenyl)-1-piperazinyl]carbonyl]-3-methyl]butyl]amino]carbonyl]oxiranecarboxylic acid] | < 2.52 |  | 
2 | O=C(O)[C@H]1O[C@@H]1C(=O)NCC(=O)N1CCN(c2ccccc2Cl)CC1 [Example 32, (2s,3s)-3-[[[[[4-(2-chlorophenyl)-1-piperazinyl]carbonyl]methyl]amino]carbonyl]oxiranecarboxylic acid] | < 2.52 | 4.76 | pIC50 (cathepsin L; read-out: Cathepsin L 50% Inhibitory concentration (IC50)): 4.42
3 | CC(C)C[C@H](NC(=O)[C@H]1O[C@@H]1C(=O)O)C(=O)NCCCCNC(=N)N [Example E-64, reference compound] | < 3.52 | 6.18 | pIC50 (papain): 7.49; pIC50 (cathepsin L): 7.82
4 | CC(=O)N[C@@H](CC(C)C)C(=O)N[C@@H](CC(C)C)C(=O)N[C@H](C=O)CCCNC(=N)N [Leupeptin, reference compound] | 5.13 |  | 

Now from value to compound, other results behind:

Row | pIC50 (trypsin) | pIC50 (μ-calpain) | SMILES | other results
5 | < 2.52 |  | O=C(O)[C@H]1O[C@@H]1C(=O)N[C@@H](Cc1ccccc1)C(=O)N1CCN(c2ccc(F)cc2)CC1 [Example 21, (2s,3s)-3-[[[[(1s)-1-[[4-(4-fluorophenyl)-1-piperazinyl]carbonyl]-2-phenyl]ethyl]amino]carbonyl]oxiranecarboxylic acid] | 
6 | < 2.52 |  | Cc1ccc(S(=O)(=O)N2CCN(C(=O)[C@H](CC(C)C)NC(=O)[C@H]3O[C@@H]3C(=O)O)CC2)cc1 [Example 26, (2s,3s)-3-[[[[(1s)-1-[[4-(4-methylphenylsulfonyl)-1-piperazinyl]carbonyl]-3-methyl]butyl]amino]carbonyl]oxiranecarboxylic acid] | 
7 | < 2.52 |  | CC(C)C[C@H](NC(=O)[C@H]1O[C@@H]1C(=O)O)C(=O)N1CCN(c2ccccc2Cl)CC1 [Example 27, (2s,3s)-3-[[[[(1s)-1-[[4-(2-chlorophenyl)-1-piperazinyl]carbonyl]3-methyl]butyl]amino]carbonyl]oxiranecarboxylic acid] | 
8 | < 2.52 |  | CC[C@H](C)[C@H](NC(=O)[C@H]1O[C@@H]1C(=O)O)C(=O)N1CCN(c2ccccc2Cl)CC1 [Example 34, (2s,3s)-3-[[[[(1s)-1-[[4-(2-chlorophenyl)-1-piperazinyl]carbonyl]-2-methyl]butyl]amino]carbonyl]oxiranecarboxylic acid] | pIC50 (cathepsin L): 8.05
9 |  | 5.41 | CC(=O)NCSC[C@H](NC(=O)[C@H]1O[C@@H]1C(=O)O)C(=O)N1CCN(c2ccccc2Cl)CC1 [Example 38, (2s,3s)-3-[[[[(1s)-1-[[4-(2-chlorophenyl)-1-piperazinyl]carbonyl]-2-acetylaminomethylthio]ethyl]amino]carbonyl]oxiranecarboxylic acid] | 
10 |  | 3.84 | O=C(O)[C@H]1O[C@@H]1C(=O)NC1(C(=O)N2CCN(c3ccc(F)cc3)CC2)CCCC1 [Example 41, (2s,3s)-3-[[[(1s)-1-[[4-(4-fluorophenyl)-1-piperazinyl]carbonyl]-1-cyclopentyl]amino]carbonyl]oxiranecarboxylic acid] | 
